Data published in paper PMC5670201 (Scientific Reports, 2017).
pKd: −log10 of the molar value. Ends that are not written are not given here.

Columns and labels:
Human Serum Albumin = Human Serum Albumin (Homo sapiens, UniProt P02768); assay: Biacore SPR, antibody variable domain peptides and antibodies against human serum albumin; format: binding; settings: for binding to human serum albumin: Biacore SPR screen, immobilized HSA and vice versa; for Kd: human, Biacore SPR, CM5 amine coupling, peptide over immobilized HSA and vice versa, pM-uM, 1:1 fit, read-out: Kinetic Binding Parameters Against Human Serum Albumin: KD
Text: The 3D structure of the positive variable region peptides were predicted by PEPFOLD 3.0 to compare to their beta hairpin structure within the full antibody[9]-[11] (Fig. 4d). […] Peptides were run in the pM-uM concentration range. […] (b) Multiple sequence alignment of the variable region peptides in question, performed by Clustal Omega. […] (d) 3D structure prediction of peptides in solution performed by PEP-FOLD 3.0, visualized in Chimera. […] Pembrolizumab included as a negative control.

HSA Peptide 40 = target: T1, HSA Peptide 40 (Homo sapiens, UniProt P02768); assay: biochemical; format: binding; settings: for binding to HSA Peptide 40: Biacore SPR screen, immobilized HSA Peptide 40 and vice versa
T1 construct: HSA 40 (479-496); purchased New England Peptide (Gardner, MA, USA)
Protocol: All peptides were run in the pM-uM concentration ranges. […] Short gaps in binding curves at transition times are from removal of solvent spikes during analysis. Binding kinetics were determined via Biacore Evaluation Software analysis of SPR sensograms. […] Structure, PDB 1BJ1, was visualized using UCSF Chimera.
The 3D structure of the positive variable region peptides were predicted by PEPFOLD 3.0 to compare to their beta hairpin structure within the full antibody[9]–[11] (Fig. 4d).
Peptides were run in the pM-uM concentration range. […] (b) Multiple sequence alignment of the variable region peptides in question, performed by Clustal Omega. […] (d) 3D structure prediction of peptides in solution performed by PEP-FOLD 3.0, visualized in Chimera. […] Pembrolizumab included as a negative control.
Peptides were re-suspended and stored in HBS running buffer at either 5 or 10 mg/ml, with up to 10% DMSO added as needed. All antibodies, peptides, as well as HSA, were immobilized on Biacore (GE Healthcare, Chicago, IL) CM5 chips via amine coupling according to manufacture protocol. Immobilization scouting was performed with pH 4.0–5.5 acetate at micromolar concentration ranges, to determine ideal immobilization conditions. […] All peptides and proteins were screened at multiple concentrations from pico to millimolarity, with an association time of 120 to 180 seconds and a dissociation time from 180 to 1200 seconds. Binding kinetics were determined using Biacore Evaluation Software and a 1:1 fit model.
The mixture was frozen, evaporated, and re-suspended in HPLC grade water with 0.1% trifluoroacetic acid. The digest was applied to a Waters X-Bridge Protein BEH C4 column (Waters, Milford, MA) and eluted off at a flow rate of 1 ml/min and a gradient of 0–60% Acetonitrile with 0.1% trifluroacetic acid over 60 minutes.

Compound	binding to human serum albumin (Human Serum Albumin)	pKd (HSA Peptide 40)	kon (HSA Peptide 40; read-out: Kinetic Binding Parameters against HSA Peptide 40: kon) [M⁻¹ s⁻¹]	binding to HSA Peptide 40 (HSA Peptide 40)	Kd (Human Serum Albumin) [pM]
rituximab: commercial monoclonal antibody, anti-CD20	do not bind HSA	–	–	–	–
HYYGSSHWYFDVWGQ [Bevacizumab Heavy Chain 11]	–	6.30	357	–	–
RVP2: Rituximab Variable Domain Peptide 2 (101-120)	binding neither	–	–	binding neither	–
DTAVYYCAKYPHYYGSSHWYF [BVP1]	–	–	–	–	2.37e+06
CC(C)[C@H](NC(=O)[C@H](CC(N)=O)NC(=O)[C@H](Cc1ccccc1)NC(=O)[C@H](Cc1ccc(O)cc1)NC(=O)[C@H](Cc1c[nH]c2ccccc12)NC(=O)[C@H](CC(=O)O)NC(=O)CNC(=O)CNC(=O)[C@H](Cc1ccc(O)cc1)NC(=O)[C@H](Cc1ccc(O)cc1)NC(=O)[C@@H](NC(=O)[C@H](CO)NC(=O)[C@H](CCCNC(=N)N)NC(=O)[C@H](C)NC(=O)[C@H](CS)NC(=O)[C@@H](N)Cc1ccc(O)cc1)[C@@H](C)O)C(=O)N[C@@H](Cc1c[nH]c2ccccc12)C(=O)NCC(=O)N[C@@H](C)C(=O)NCC(=O)O [RVP1]	bound both	–	–	bound both	2.48e+06
